The subject of one assay is Puccinia recondita var. tritici. Kind of assay: wheat leaf rust control on wheat seedlings. It is filed as in vivo. Conditions: 100 ppm, sprayed day before inoculation. On the procedure: (§1) Compounds of this invention were dissolved in acetone in an amount equal to 6% of the final volume and then suspended at a concentration of 100 ppm in purified water containing 250 ppm of the surfactant TREM 014 (polyhydric alcohol esters). This suspension was sprayed to the point of run-off on wheat seedlings. The following day, the plants were inoculated with a spore suspension of Puccinia recondita var. tritici, causal agent of wheat leaf rust, and incubated in a saturated humidity chamber at 20° for 24 hours and then in a growth room for an additional 7 days, when disease ratings were made. Treated plants from successful treatments had few or no rust pustules while the untreated plants had numerous rust pustules on each leaf.
In turn, `COc1cccc(OC)c1[Si](C)(C)Cn1ccnc1` [(2,6-Dimethoxyphenyl)dimethyl(1H-imidazol-1-ylmethyl)silane] returned a pest or weed control at 100 ppm of 0%.

For the compound `C[Si](Cn1ccnc1)(c1ccccc1)c1ccccc1Cl` (stereo not drawn) [(2-Chlorophenyl)(1H-imidazol-1-ylmethyl)methyl(phenyl)silane], the pest or weed control at 100 ppm came to 0%.

The compound `C[Si](C)(Cn1ccnc1)c1cccc(Cl)c1` [(3-Chlorophenyl)dimethyl(1H-imidazol-1-ylmethyl)silane] showed a pest or weed control at 100 ppm of 80%.

Turning to `C[Si](C)(Cn1ccnc1)c1ccc(-c2ccc(Br)cc2)cc1` [(4'-Bromo-1,1'-biphenyl-4-yl)dimethyl(1H-imidazol-1-ylmethyl)silane], the pest or weed control at 100 ppm is 100%.

In turn, `C[Si](C)(Cn1ccnc1)c1ccc(Br)cc1` [(4-Bromophenyl)(1H-imidazol-1-ylmethyl)dimethylsilane] registered a pest or weed control at 100 ppm of 0%.

`C[Si](Cn1ccnc1)(c1ccccc1)c1ccc(Br)cc1` (stereo not drawn) [(4-Bromophenyl)(1H-imidazol-1-ylmethyl)methyl(phenyl)silane] gave a pest or weed control at 100 ppm of 90%.

For another assay, the system named is Erysiphe cichoracearum. Nature of the assay: cucumber powdery mildew control on cucumber seedlings. It is filed as in vivo. The conditions noted are these: Golovinomyces cichoracearum, 168 h, 7 days. On the procedure: Compounds of the previous examples were again dissolved in acetone in an amount equal to 6% of the final volume and then suspended at a concentration of 100 ppm in purified water containing 250 ppm of the surfactant TREM 014 (polyhydric alcohol esters). This suspension was sprayed to the point of run-off on cucumber seedlings. The following day, the plants were inoculated with a spore suspension of the fungus Erysiphe cichoracearum, causal agent of cucumber powdery mildew, and incubated in a growth room for 7 days. Disease ratings were then made. Treated plants from successful treatments had little or no powdery mildew in contrast to untreated plants which were covered with powdery mildew.
`COc1cccc(OC)c1[Si](C)(C)Cn1ccnc1` [(2,6-Dimethoxyphenyl)dimethyl(1H-imidazol-1-ylmethyl)silane] gave a pest or weed control at 100 ppm of 0%.

`C[Si](Cn1ccnc1)(c1ccccc1)c1ccccc1Cl` (stereo not drawn) [(2-Chlorophenyl)(1H-imidazol-1-ylmethyl)methyl(phenyl)silane] displayed a pest or weed control at 100 ppm of 100%.

For `C[Si](C)(Cn1ccnc1)c1cccc(Cl)c1` [(3-Chlorophenyl)dimethyl(1H-imidazol-1-ylmethyl)silane], the pest or weed control at 100 ppm worked out at 80%.

In turn, `C[Si](C)(Cn1ccnc1)c1ccc(-c2ccc(Br)cc2)cc1` [(4'-Bromo-1,1'-biphenyl-4-yl)dimethyl(1H-imidazol-1-ylmethyl)silane] showed a pest or weed control at 100 ppm of 100%.

Compound `C[Si](C)(Cn1ccnc1)c1ccc(Br)cc1` [(4-Bromophenyl)(1H-imidazol-1-ylmethyl)dimethylsilane] gave a pest or weed control at 100 ppm of 100%.

With `C[Si](Cn1ccnc1)(c1ccccc1)c1ccc(Br)cc1` (stereo not drawn) [(4-Bromophenyl)(1H-imidazol-1-ylmethyl)methyl(phenyl)silane], the pest or weed control at 100 ppm is 100%.

The subject of the next assay is Venturia inaequalis. Nature of the assay: apple scab control on apple seedlings. It counts as in vivo. Conditions: Venturia inaequalis; 100 ppm. On the procedure:
as §1, with “apple” for “wheat”, “the fungus Venturia inaequalis,” for “Puccinia recondita var. tritici,”, “apple scab,” for “wheat leaf rust,”, “10-12 days.” for “7 days, when disease ratings were made.”, “apple scab lesions when compared to” for “rust pustules while the”, “which were covered with scab lesions.” for “had numerous rust pustules on each leaf.”
Regarding `COc1cccc(OC)c1[Si](C)(C)Cn1ccnc1` [(2,6-Dimethoxyphenyl)dimethyl(1H-imidazol-1-ylmethyl)silane], the pest or weed control at 100 ppm was 0%.

`C[Si](Cn1ccnc1)(c1ccccc1)c1ccccc1Cl` (stereo not drawn) [(2-Chlorophenyl)(1H-imidazol-1-ylmethyl)methyl(phenyl)silane]: the pest or weed control at 100 ppm stood at 100%.

With `C[Si](C)(Cn1ccnc1)c1cccc(Cl)c1` [(3-Chlorophenyl)dimethyl(1H-imidazol-1-ylmethyl)silane], the pest or weed control at 100 ppm is 60%.

`C[Si](C)(Cn1ccnc1)c1ccc(-c2ccc(Br)cc2)cc1` [(4'-Bromo-1,1'-biphenyl-4-yl)dimethyl(1H-imidazol-1-ylmethyl)silane] gave a pest or weed control at 100 ppm of 50%.

In turn, `C[Si](C)(Cn1ccnc1)c1ccc(Br)cc1` [(4-Bromophenyl)(1H-imidazol-1-ylmethyl)dimethylsilane] displayed a pest or weed control at 100 ppm of 0%.

Turning to `C[Si](Cn1ccnc1)(c1ccccc1)c1ccc(Br)cc1` (stereo not drawn) [(4-Bromophenyl)(1H-imidazol-1-ylmethyl)methyl(phenyl)silane], the pest or weed control at 100 ppm stood at 30%.

In another assay the test system is Helminthosporium maydis. Nature of the assay: southern corn leaf blight control on corn seedlings. It counts as in vivo. Conditions: Bipolaris maydis, 168 h. On the procedure:
Compounds of the previous example were again dissolved in acetone in an amount equal to 6% of the final volume and then suspended at a concentration of 100 ppm in purified water containing 250 ppm of the surfactant TREM 014 (polyhydric alcohol esters). This suspension was sprayed to the point of run-off on corn seedlings. The following day, the plants were inoculated with a spore suspension of Helminthosporium maydis, causal agent of southern corn leaf blight, and incubated in a saturated humidity chamber at 20° for 24 hours and then in a growth room for an additional 7 days, when disease ratings were made. Treated plants from successful treatments had few lesions while the untreated plants had numerous lesions on each leaf.
`COc1cccc(OC)c1[Si](C)(C)Cn1ccnc1` [(2,6-Dimethoxyphenyl)dimethyl(1H-imidazol-1-ylmethyl)silane] displayed a pest or weed control at 100 ppm of 50%.

On to `C[Si](Cn1ccnc1)(c1ccccc1)c1ccccc1Cl` (stereo not drawn) [(2-Chlorophenyl)(1H-imidazol-1-ylmethyl)methyl(phenyl)silane], for which the pest or weed control at 100 ppm came to 0%.

Compound `C[Si](C)(Cn1ccnc1)c1cccc(Cl)c1` [(3-Chlorophenyl)dimethyl(1H-imidazol-1-ylmethyl)silane] returned a pest or weed control at 100 ppm of 0%.

`C[Si](C)(Cn1ccnc1)c1ccc(-c2ccc(Br)cc2)cc1` [(4'-Bromo-1,1'-biphenyl-4-yl)dimethyl(1H-imidazol-1-ylmethyl)silane] displayed a pest or weed control at 100 ppm of 0%.

For `C[Si](C)(Cn1ccnc1)c1ccc(Br)cc1` [(4-Bromophenyl)(1H-imidazol-1-ylmethyl)dimethylsilane], the pest or weed control at 100 ppm was 0%.

Compound `C[Si](Cn1ccnc1)(c1ccccc1)c1ccc(Br)cc1` (stereo not drawn) [(4-Bromophenyl)(1H-imidazol-1-ylmethyl)methyl(phenyl)silane] showed a pest or weed control at 100 ppm of 0%.

Another assay concerns Cercospora arachidicola. Nature of the assay: peanut early leafspot control on peanut seedlings. It is filed as in vivo. The conditions noted are these: Mycosphaerella arachidis, 336 h. On the procedure: Compounds of the previous examples were again dissolved in acetone in an amount equal to 6% of the final volume and then suspended at a concentration of 100 ppm in purified water containing 250 ppm of the surfactant TREM 014 (polyhydric alcohol esters). This suspension was sprayed to the point of run-off on peanut seedlings. The following day, the plants were inoculated with a spore suspension of Cercospora arachidicola, causal agent of peanut early leafspot, and incubated in a saturated humidity chamber at 27° for 24 hours and then in a growth room for an additional 14 days, when disease ratings were made. Treated plants from successful treatments had few or no leafspots while the untreated plants had numerous leafspots on each leaf.
`COc1cccc(OC)c1[Si](C)(C)Cn1ccnc1` [(2,6-Dimethoxyphenyl)dimethyl(1H-imidazol-1-ylmethyl)silane] returned a pest or weed control at 100 ppm of 0%.

`C[Si](Cn1ccnc1)(c1ccccc1)c1ccccc1Cl` (stereo not drawn) [(2-Chlorophenyl)(1H-imidazol-1-ylmethyl)methyl(phenyl)silane] returned a pest or weed control at 100 ppm of 100%.

For `C[Si](C)(Cn1ccnc1)c1cccc(Cl)c1` [(3-Chlorophenyl)dimethyl(1H-imidazol-1-ylmethyl)silane], the pest or weed control at 100 ppm was 0%.

Consider `C[Si](C)(Cn1ccnc1)c1ccc(-c2ccc(Br)cc2)cc1` [(4'-Bromo-1,1'-biphenyl-4-yl)dimethyl(1H-imidazol-1-ylmethyl)silane], for which the pest or weed control at 100 ppm is 90%.

In turn, `C[Si](C)(Cn1ccnc1)c1ccc(Br)cc1` [(4-Bromophenyl)(1H-imidazol-1-ylmethyl)dimethylsilane] returned a pest or weed control at 100 ppm of 0%.

For the compound `C[Si](Cn1ccnc1)(c1ccccc1)c1ccc(Br)cc1` (stereo not drawn) [(4-Bromophenyl)(1H-imidazol-1-ylmethyl)methyl(phenyl)silane], the pest or weed control at 100 ppm is 90%.

A further assay has as its system Rhizoctonia solani. Kind of assay: rice sheath blight control on rice seedlings. Conditions: Rhizoctonia solani, 168 h, 7 days. It is filed as in vivo. On the procedure:
Several compounds of the previous examples were again dissolved in acetone in an amount equal to 6% of the final volume and then suspended at a concentration of 100 ppm in purified water containing 250 ppm of the surfactant TREM 014 (polyhydric alcohol esters). This suspension was sprayed to the point of run-off on rice seedlings. The following day, the plants were inoculated with a mixture of bran and the mycelium of Rhizoctonia solani, causal agent of sheath blight of rice, and incubated in a growth room for 7 days. Disease ratings were then made. Treated plants from successful treatments had little sheath blight in contrast to untreated plants which were covered with sheath blight.
In turn, `COc1cccc(OC)c1[Si](C)(C)Cn1ccnc1` [(2,6-Dimethoxyphenyl)dimethyl(1H-imidazol-1-ylmethyl)silane] gave a pest or weed control at 100 ppm of 0%.

`C[Si](Cn1ccnc1)(c1ccccc1)c1ccccc1Cl` (stereo not drawn) [(2-Chlorophenyl)(1H-imidazol-1-ylmethyl)methyl(phenyl)silane] came in with a pest or weed control at 100 ppm of 0%.

As for `C[Si](C)(Cn1ccnc1)c1cccc(Cl)c1` [(3-Chlorophenyl)dimethyl(1H-imidazol-1-ylmethyl)silane], the pest or weed control at 100 ppm was 90%.

As for `C[Si](C)(Cn1ccnc1)c1ccc(-c2ccc(Br)cc2)cc1` [(4'-Bromo-1,1'-biphenyl-4-yl)dimethyl(1H-imidazol-1-ylmethyl)silane], the pest or weed control at 100 ppm amounted to 90%.

Consider `C[Si](C)(Cn1ccnc1)c1ccc(Br)cc1` [(4-Bromophenyl)(1H-imidazol-1-ylmethyl)dimethylsilane], for which the pest or weed control at 100 ppm amounted to 0%.

The compound `C[Si](Cn1ccnc1)(c1ccccc1)c1ccc(Br)cc1` (stereo not drawn) [(4-Bromophenyl)(1H-imidazol-1-ylmethyl)methyl(phenyl)silane] yielded a pest or weed control at 100 ppm of 0%.

A further assay concerns Pyricularia oryzae. Nature of the assay: whole plant or invertebrate. It is filed as in vivo. Conditions: 168 h, read-out: % Control of Rice Blast.
In the case of `COc1cccc(OC)c1[Si](C)(C)Cn1ccnc1` [(2,6-Dimethoxyphenyl)dimethyl(1H-imidazol-1-ylmethyl)silane], the pest or weed control at 100 ppm was 0%.

Turning to `C[Si](Cn1ccnc1)(c1ccccc1)c1ccccc1Cl` (stereo not drawn) [(2-Chlorophenyl)(1H-imidazol-1-ylmethyl)methyl(phenyl)silane], the pest or weed control at 100 ppm was 0%.

In the case of `C[Si](C)(Cn1ccnc1)c1cccc(Cl)c1` [(3-Chlorophenyl)dimethyl(1H-imidazol-1-ylmethyl)silane], the pest or weed control at 100 ppm was found to be 0%.

In the case of `C[Si](C)(Cn1ccnc1)c1ccc(-c2ccc(Br)cc2)cc1` [(4'-Bromo-1,1'-biphenyl-4-yl)dimethyl(1H-imidazol-1-ylmethyl)silane], the pest or weed control at 100 ppm turned out to be 90%.

On to `C[Si](C)(Cn1ccnc1)c1ccc(Br)cc1` [(4-Bromophenyl)(1H-imidazol-1-ylmethyl)dimethylsilane], for which the pest or weed control at 100 ppm worked out at 0%.

Turning to `C[Si](Cn1ccnc1)(c1ccccc1)c1ccc(Br)cc1` (stereo not drawn) [(4-Bromophenyl)(1H-imidazol-1-ylmethyl)methyl(phenyl)silane], the pest or weed control at 100 ppm worked out at 0%.

The subject of a further assay is Phytophthora infestans. Nature of the assay: whole plant or invertebrate. It counts as in vivo. The conditions noted are these: Phytophthora infestans, in Solanum lycopersicum, 168 h, read-out: % Control of Tomato Late Blight.
As for `COc1cccc(OC)c1[Si](C)(C)Cn1ccnc1` [(2,6-Dimethoxyphenyl)dimethyl(1H-imidazol-1-ylmethyl)silane], the pest or weed control at 100 ppm was found to be 50%.

Consider `C[Si](Cn1ccnc1)(c1ccccc1)c1ccccc1Cl` (stereo not drawn) [(2-Chlorophenyl)(1H-imidazol-1-ylmethyl)methyl(phenyl)silane], for which the pest or weed control at 100 ppm stood at 0%.

As to `C[Si](C)(Cn1ccnc1)c1cccc(Cl)c1` [(3-Chlorophenyl)dimethyl(1H-imidazol-1-ylmethyl)silane], the pest or weed control at 100 ppm came to 0%.

As to `C[Si](C)(Cn1ccnc1)c1ccc(-c2ccc(Br)cc2)cc1` [(4'-Bromo-1,1'-biphenyl-4-yl)dimethyl(1H-imidazol-1-ylmethyl)silane], the pest or weed control at 100 ppm stood at 0%.

As to `C[Si](C)(Cn1ccnc1)c1ccc(Br)cc1` [(4-Bromophenyl)(1H-imidazol-1-ylmethyl)dimethylsilane], the pest or weed control at 100 ppm was found to be 30%.

For `C[Si](Cn1ccnc1)(c1ccccc1)c1ccc(Br)cc1` (stereo not drawn) [(4-Bromophenyl)(1H-imidazol-1-ylmethyl)methyl(phenyl)silane], the pest or weed control at 100 ppm worked out at 0%.

(Values after patent US4496551A (priority 1983, dated 1985).)
